Where a name gives a salt, the structure may show the parent alone.
Columns and labels:
[1] = biological target: 5-HT1B (serotonin 1B) receptor (Rattus norvegicus, UniProt P28564); experiment: serotonin binding activity, 5-HT1B; details: average test results; read-out: pKi 5-HT1B (converted)
Protocol: (§1) The various compounds of Examples I-VIII were analyzed for serotonin binding activity.

[2] = biological target: T1, 5-HT1A (serotonin 1A) receptors (Homo sapiens, UniProt P08908); experiment: serotonin binding activity, 5-HT1A; details: average test results; read-out: pKi 5-HT1A (converted)
T1 sequence (P08908 1-422): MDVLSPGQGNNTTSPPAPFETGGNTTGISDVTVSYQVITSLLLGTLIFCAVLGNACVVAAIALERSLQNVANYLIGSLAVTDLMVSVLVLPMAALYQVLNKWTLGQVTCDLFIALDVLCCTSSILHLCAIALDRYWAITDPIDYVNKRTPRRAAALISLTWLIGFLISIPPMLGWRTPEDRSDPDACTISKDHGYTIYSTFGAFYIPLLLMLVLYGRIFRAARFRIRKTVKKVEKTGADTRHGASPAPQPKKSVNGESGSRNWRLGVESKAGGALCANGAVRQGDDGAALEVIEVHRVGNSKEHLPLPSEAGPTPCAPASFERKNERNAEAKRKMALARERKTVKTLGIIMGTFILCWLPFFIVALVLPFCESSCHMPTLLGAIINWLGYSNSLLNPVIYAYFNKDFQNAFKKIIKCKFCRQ
Protocol: as §1

Sequence of 5-HT1B (serotonin 1B) receptor (P28564 whole entry): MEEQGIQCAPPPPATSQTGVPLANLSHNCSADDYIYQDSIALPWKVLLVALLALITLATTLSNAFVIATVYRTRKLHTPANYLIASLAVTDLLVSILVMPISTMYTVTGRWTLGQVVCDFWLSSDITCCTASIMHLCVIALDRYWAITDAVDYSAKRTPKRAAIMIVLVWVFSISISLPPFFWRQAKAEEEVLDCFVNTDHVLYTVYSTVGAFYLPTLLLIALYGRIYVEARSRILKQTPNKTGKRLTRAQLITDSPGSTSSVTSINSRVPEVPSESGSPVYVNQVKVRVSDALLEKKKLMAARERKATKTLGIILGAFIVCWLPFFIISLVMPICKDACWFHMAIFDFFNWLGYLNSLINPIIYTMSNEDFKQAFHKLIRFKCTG

| Structure (SMILES) | Ki [1] | Ki [2] |
| --- | --- | --- |
| O=C(NCCN1CCN(c2cccc(C(F)(F)F)n2)CC1)c1ccc(F)cc1 [Example I, 4-fluoro-N-[2-[4-[6-(trifluoromethyl)-2-pyridinyl]-1-piperazinyl]ethyl]benzamide (E)-2-butenedioate (1:1) salt] | > 10000 nM | 1.58 nM |
| O=C(NCCCCN1CCN(c2cccc(C(F)(F)F)n2)CC1)c1ccc(F)cc1 [Example IV, 4-fluoro-N-[4-[4-[6-(trifluoromethyl) -2-pyridinyl]-1-piperazinyl]butyl]benzamide (E)-2-butenedioate (2:1) salt] | 501 nM | 7.94 nM |
| O=C(NCCN1CCN(c2cccc(C(F)(F)F)n2)CC1)c1ccccc1 [II, N-[2-[4-[6-(trifluoromethyl)-2-pyridinyl]-1-piperazinyl]ethyl]benzamide (E)-2-butenedioate (1:1) salt] | 10000 nM | 1 nM |
| O=C(NCCN1CCN(c2cc(C(F)(F)F)ccn2)CC1)c1ccc(F)cc1 [III, 4-fluoro-N-[2-[4-[4-(trifluoromethyl) -2-pyridinyl]-1-piperazinyl]ethyl]benzamide (E)-2-butenedioate (1:1) salt] | 10000 nM | 20 nM |
| O=C(NCCCCN1CCN(c2cccc(C(F)(F)F)n2)CC1)c1ccccc1 [V, N-[4-[4-[6-(trifluoromethyl)-2-pyridinyl]-1-piperazinyl]butyl]benzamide (E)-2-butenedioate (2:1) salt] | 1000 nM | 6.31 nM |
| CN(CCN1CCN(c2cccc(C(F)(F)F)n2)CC1)C(=O)c1ccc(F)cc1 [VII, 4-fluoro-N-[2-[4-(6-(trifluoromethyl)-2-pyridinyl)-1-piperazinyl]ethyl]-N-methylbenzamide] | > 10000 nM | 31.6 nM |
| CN(CCCN1CCN(c2cccc(C(F)(F)F)n2)CC1)C(=O)c1ccc(F)cc1 [VIII, 4-fluoro-N-[3-[4-(6-(trifluoromethyl)-2-pyridinyl)-1-piperazinyl]propyl]-N-methylbenzamide] | > 10000 nM | 63.1 nM |
| O=C(NCCN1CCN(c2cccc(C(F)(F)F)n2)CC1)c1cccnc1 [VI] | 5010 nM | 50.1 nM |

— patent US5135931A, “Pyridinylpiperazine derivatives” (Akzo N.V., priority 1990, dated 1992)
